# Source: patent publication US12600728B2, “Interleukin-17 inhibitors” (priority 2020, dated 2026)
# Like-named read-outs stand apart in the source and are kept apart here.
# Key:
# [1] = target: biotinylated human IL-17A / AF647-labeled human IL-17RA (Homo sapiens, UniProt Q16552); experiment: Human IL-17A×IL-17RA TR-FRET assay; format: binding; settings: 5 nM IL-17A, 30 nM IL-17RA
# Method in brief: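 Compounds tested in duplicate at each concentration; neutral controls contain all components with DMSO in place of compound.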
# [2] = target: recombinant human IL-17AA (Homo sapiens, UniProt Q16552); experiment: IL-6 release from NHDF cells, IL-17AA plus TNF-α stimulation; format: cell-based; settings: IL-17AA 30 pM + TNF-α 6 pM, 24 hours, IL-6 by ELISA
# Method in brief: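 ELISA measured IL-6 in supernatants after 24 h at 37° C of NHDF cells with a compound/cytokine cocktail, pre-mixed 30 min at room temperature. Duplicates; 0.1% DMSO or 20% plasma final. IC50 from IL-6 remaining after subtracting the TNF-α-alone signal.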
# [3] = IL17AA FRET/ IL17Rawt IC50, TR-FRET
# [4] = IL17AA + TNF IC50 IL-6, NHDF cells
# [5] = TR-FRET, read-out: IL17AA FRET/ IL17Rawt IC50
# [6] = NHDF cells, read-out: IL17AA + TNF IC50 IL-6
# Chain of recombinant human IL-17AA (Q16552 24-155): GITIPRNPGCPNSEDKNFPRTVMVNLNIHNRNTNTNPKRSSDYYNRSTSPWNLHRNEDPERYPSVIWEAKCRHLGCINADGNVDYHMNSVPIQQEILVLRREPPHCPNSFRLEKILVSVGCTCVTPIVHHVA
# Chain of biotinylated human IL-17A / AF647-labeled human IL-17RA (Q16552 24-155): as above
"IC50 [1, 5]","IC50 [2, 6]",SMILES,"IC50 [1, 3]","IC50 [2, 4]"
,,"CCn1nccc1C(=O)N[C@H](C(=O)Nc1ccc(-c2c(C)cc[n+]([O-])c2C)cc1)C1CCC(F)(F)CC1 [Example 159, (S)-3-(4-(2-(4,4-difluorocyclohexyl)-2-(1-ethyl-1H-pyrazole-5-carboxamido)acetamido)phenyl)-2,4-dimethylpyridine 1-oxide]",0.1 µM,0.031 µM
,,"Cc1c(-c2ccc(NC(=O)C(NC(=O)c3ccnn3C)C3CCCC(F)(F)C3)cc2)c(Cl)cc[n+]1[O-] (stereo not drawn) [Example 160, 4-chloro-3-(4-(2-(3,3-difluorocyclohexyl)-2-(1-methyl-1H-pyrazole-5-carboxamido)acetamido)phenyl)-2-methylpyridine 1-oxide]",0.0895 µM,0.0523 µM
0.13 µM,0.0205 µM,"Cc1cc[n+]([O-])c(C)c1-c1ccc(NC(=O)C(NC(=O)c2ccnn2C(C)C)C2CCCC(F)(F)C2)cc1 (stereo not drawn) [Example 161, 3-(4-(2-(3,3-difluorocyclohexyl)-2-(1-isopropyl-1H-pyrazole-5-carboxamido)acetamido)phenyl)-2,4-dimethylpyridine 1-oxide]",,
0.186 µM,0.044 µM,"Cc1cc[n+]([O-])c(C)c1-c1ccc(NC(=O)[C@@H](NC(=O)c2conc2C)C2CCC(F)(F)CC2)cc1 [Example 162, (S)-3-(4-(2-(4,4-difluorocyclohexyl)-2-(3-methylisoxazole-4-carboxamido)acetamido)phenyl)-2,4-dimethylpyridine 1-oxide]",,
0.191 µM,0.068 µM,"COCc1nocc1C(=O)N[C@H](C(=O)Nc1ccc(-c2c(Cl)cc[n+]([O-])c2C)c(F)c1)C1CCC(F)(F)CC1 [Example 163, 4-chloro-3-(4-((S)-2-(4,4-difluorocyclohexyl)-2-(3-(methoxymethyl)isoxazole-4-carboxamido)acetamido)-2-fluorophenyl)-2-methylpyridine 1-oxide]",,
0.199 µM,0.045 µM,"Cc1c(-c2ccc(NC(=O)[C@@H](NC(=O)c3ccc4n3CCN(C)C4)C3CCC(F)(F)CC3)cc2F)c(Cl)cc[n+]1[O-] [Example 164, 4-chloro-3-(4-((S)-2-(4,4-difluorocyclohexyl)-2-(2-methyl-1,2,3,4-tetrahydropyrrolo[1,2-a]pyrazine-6-carboxamido)acetamido)-2-fluorophenyl)-2-methylpyridine 1-oxide]",,
0.155 µM,0.21 µM,"Cc1cc[n+]([O-])c(C)c1-c1ccc(NC(=O)[C@@H](NC(=O)c2cnn(C)c2C)C2CCCCC2)cc1 [Example 167, (S)-3-(4-(2-cyclohexyl-2-(1,5-dimethyl-1H-pyrazole-4-carboxamido)acetamido)phenyl)-2,4-dimethylpyridine 1-oxide]",,
0.391 µM,0.339 µM,"Cc1cc(-c2ccc(NC(=O)[C@@H](NC(=O)c3conc3C)C3CCC(F)(F)CC3)cc2)c(C)[n+]([O-])c1 [Example 169, (S)-3-(4-(2-(4,4-difluorocyclohexyl)-2-(3-methylisoxazole-4-carboxamido)acetamido)phenyl)-2,5-dimethylpyridine 1-oxide]",,
,,"CCn1nccc1C(=O)N[C@H](C(=O)Nc1ccc(-c2cc(Cl)c[n+]([O-])c2C)cc1)C1CCC(F)(F)CC1 [Example 170, (S)-5-chloro-3-(4-(2-(4,4-difluorocyclohexyl)-2-(1-ethyl-1H-pyrazole-5-carboxamido)acetamido)phenyl)-2-methylpyridine 1-oxide]",0.402 µM,0.231 µM
,,"Cc1cc(-c2ccc(NC(=O)[C@@H](NC(=O)c3ccnn3C)C3CCC(F)(F)CC3)cc2)c(C)[n+]([O-])c1 [Example 171, (S)-3-(4-(2-(4,4-difluorocyclohexyl)-2-(1-methyl-1H-pyrazole-5-carboxamido)acetamido)phenyl)-2,5-dimethylpyridine 1-oxide]",0.465 µM,0.398 µM
0.596 µM,0.531 µM,"Cc1nocc1C(=O)N[C@H](C(=O)Nc1ccc(-c2cc(Cl)c[n+]([O-])c2C)c(F)c1)C1CCC(F)(F)CC1 [Example 172, (S)-5-chloro-3-(4-(2-(4,4-difluorocyclohexyl)-2-(3-methylisoxazole-4-carboxamido)acetamido)-2-fluorophenyl)-2-methylpyridine 1-oxide]",,
0.659 µM,1.68 µM,"Cc1nocc1C(=O)N[C@H](C(=O)Nc1ccc(-c2cc(Cl)c[n+]([O-])c2C)cc1)C1CCC(F)(F)CC1 [Example 173, (S)-5-chloro-3-(4-(2-(4,4-difluorocyclohexyl)-2-(3-methylisoxazole-4-carboxamido)acetamido)phenyl)-2-methylpyridine 1-oxide]",,
,,"Cc1c(-c2ccc(NC(=O)[C@@H](NC(=O)c3ccnn3C)C3CCC(F)(F)CC3)cc2F)cc(Cl)c[n+]1[O-] [Example 174, (S)-5-chloro-3-(4-(2-(4,4-difluorocyclohexyl)-2-(1-methyl-1H-pyrazole-5-carboxamido)acetamido)-2-fluorophenyl)-2-methylpyridine 1-oxide]",0.683 µM,0.286 µM
,,"Cc1c(-c2ccc(NC(=O)[C@@H](NC(=O)c3ccnn3C)C3CCCCC3)cc2)cc(Cl)c[n+]1[O-] [Example 175, (S)-5-chloro-3-(4-(2-cyclohexyl-2-(1-methyl-1H-pyrazole-5-carboxamido)acetamido)phenyl)-2-methylpyridine 1-oxide]",0.846 µM,0.13 µM
0.00896 µM,0.03 µM,"Cc1cc[n+]([O-])c(C)c1-c1ccc(NC(=O)C(NC(=O)c2ccc3n2CCNC3)C2CCC(C(F)(F)F)CC2)cc1 [Example 178, 2,4-dimethyl-3-(4-((S)-2-(1,2,3,4-tetrahydropyrrolo[1,2-a]pyrazine-6-carboxamido)-2-((1r,4S)-4-(trifluoromethyl)cyclohexyl)acetamido)phenyl)pyridine 1-oxide]",,
0.0139 µM,0.06 µM,"Cc1c(-c2ccc(NC(=O)[C@@H](NC(=O)c3ccc4n3CCNC4)C3CCC(F)(F)CC3)cc2F)c(Cl)cc[n+]1[O-] [Example 179, 4-chloro-3-(4-((S)-2-(4,4-difluorocyclohexyl)-2-(1,2,3,4-tetrahydropyrrolo[1,2-a]pyrazine-6-carboxamido)acetamido)-2-fluorophenyl)-2-methylpyridine 1-oxide]",,
0.052 µM,0.372 µM,"Cc1cc[n+]([O-])c(C)c1-c1ccc(NC(=O)[C@H](Cc2ccccc2Cl)NC(=O)c2ccnn2C)cc1 [Example 180, (S)-3-(4-(3-(2-chlorophenyl)-2-(1-methyl-1H-pyrazole-5-carboxamido)propanamido)phenyl)-2,4-dimethylpyridine 1-oxide]",,
0.0612 µM,0.0445 µM,"Cc1c(-c2ccc(NC(=O)C(NC(=O)c3ccnn3C)C3CCCC(F)C3)cc2)c(Cl)cc[n+]1[O-] (stereo not drawn) [Example 182, 4-chloro-3-(4-(2-(3-fluorocyclohexyl)-2-(1-methyl-1H-pyrazole-5-carboxamido)acetamido)phenyl)-2-methylpyridine 1-oxide]",,
0.0541 µM,0.042 µM,"Cc1c(-c2ccc(NC(=O)[C@@H](NC(=O)c3ccnn3C)[C@H]3CCCC(F)(F)C3)cc2)c(C(F)(F)F)cc[n+]1[O-] [Example 183, 3-(4-((S)-2-((S)-3,3-difluorocyclohexyl)-2-(1-methyl-1H-pyrazole-5-carboxamido)acetamido)phenyl)-2-methyl-4-(trifluoromethyl)pyridine 1-oxide]",,
0.0599 µM,0.011 µM,"CC(=O)N1CCn2c(ccc2C(=O)N[C@H](C(=O)Nc2ccc(-c3c(Cl)cc[n+]([O-])c3C)cc2F)C2CCCCC2)C1 [Example 184, (S)-3-(4-(2-(2-acetyl-1,2,3,4-tetrahydropyrrolo[1,2-a]pyrazine-6-carboxamido)-2-cyclohexylacetamido)-3-fluorophenyl)-4-chloro-2-methylpyridine 1-oxide]",,
0.0771 µM,0.00975 µM,"CC(=O)N1CCn2ccc(C(=O)N[C@H](C(=O)Nc3ccc(-c4c(C)cc[n+]([O-])c4C)cc3)C3CCCCCC3)c2C1 [Example 185, (S)-3-(4-(2-(2-acetyl-1,2,3,4-tetrahydropyrrolo[1,2-a]pyrazine-8-carboxamido)-2-cycloheptylacetamido)phenyl)-2,4-dimethylpyridine 1-oxide]",,
0.0815 µM,0.034 µM,"Cc1c(-c2ccc(NC(=O)C(NC(=O)c3ccc4n3CCNC4)C3CCCc4ccccc43)cc2F)c(Cl)cc[n+]1[O-] [Example 186, 4-chloro-3-(2-fluoro-4-((S)-2-((S)-1,2,3,4-tetrahydronaphtha]en-1-yl)-2-(1,2,3,4-tetrahydropyrrolo[1,2-a]pyrazine-6-carboxamido)acetamido)phenyl)-2-methylpyridine 1-oxide]",,
0.0854 µM,0.017 µM,"CC(=O)N1CCn2c(ccc2C(=O)N[C@H](C(=O)Nc2ccc(-c3c(Cl)cc[n+]([O-])c3C)c(F)c2)C2CCCCC2)C1 [Example 187, 3-(4-((S)-2-(2-acetyl-1,2,3,4-tetrahydropyrrolo[1,2-a]pyrazine-6-carboxamido)-2-cyclohexylacetamido)-2-fluorophenyl)-4-chloro-2-methylpyridine 1-oxide]",,
0.104 µM,0.00605 µM,"CC(=O)N1CCn2c(ccc2C(=O)N[C@H](C(=O)Nc2ccc(-c3c(C)cc[n+]([O-])c3C)cc2)C2CCCCCC2)C1 [Example 188, (S)-3-(4-(2-(2-acetyl-1,2,3,4-tetrahydropyrrolo[1,2-a]pyrazine-6-carboxamido)-2-cycloheptylacetamido)phenyl)-2,4-dimethylpyridine 1-oxide]",,
